Data: US20250051347A1, “BIFUNCTIONAL CHIMERIC HETEROCYCLIC COMPOUND AND USE THEREOF AS ANDROGEN RECEPTOR DEGRADER” (Hinova Pharmaceuticals, Inc., priority 2021, published 2025)

Target: T1, androgen receptor (AR) splicing variant AR-v7 (Homo sapiens, UniProt P10275)
T1 construct: The degradation activity of compounds on AR-v7 in 22RV1 cells; host or cells: 22RV1 cells
T1 sequence (P10275 1-644 isoform P10275-3): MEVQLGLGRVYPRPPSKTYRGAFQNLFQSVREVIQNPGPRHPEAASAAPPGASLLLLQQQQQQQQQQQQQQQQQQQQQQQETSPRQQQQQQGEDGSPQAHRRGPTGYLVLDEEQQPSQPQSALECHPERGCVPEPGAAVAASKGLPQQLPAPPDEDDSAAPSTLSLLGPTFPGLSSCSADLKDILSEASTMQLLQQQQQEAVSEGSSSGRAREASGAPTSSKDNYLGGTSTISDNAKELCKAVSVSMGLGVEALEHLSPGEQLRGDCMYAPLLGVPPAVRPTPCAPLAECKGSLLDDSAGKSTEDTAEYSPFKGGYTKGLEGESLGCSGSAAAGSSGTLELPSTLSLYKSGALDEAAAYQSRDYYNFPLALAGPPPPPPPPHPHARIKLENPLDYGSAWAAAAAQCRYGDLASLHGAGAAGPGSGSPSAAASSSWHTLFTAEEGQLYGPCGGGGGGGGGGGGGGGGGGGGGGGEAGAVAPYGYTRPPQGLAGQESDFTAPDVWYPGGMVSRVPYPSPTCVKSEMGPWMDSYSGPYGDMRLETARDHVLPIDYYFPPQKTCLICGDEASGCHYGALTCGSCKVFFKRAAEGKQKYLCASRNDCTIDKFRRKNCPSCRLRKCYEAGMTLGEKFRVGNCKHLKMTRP
Experiment: Degradation activity on androgen receptor splicing variant AR-v7 in 22RV1 cells (ELISA)
Assay type: cell-based
Settings: AR-v7 degradation in 22RV1 cells, 48 h, class symbols

SMILES	DC50
CC(=O)c1nccc(COc2ccc(C(C)(C)c3ccc(OCC4CN(c5ccc6c(c5)C(=O)N(C5CCC(=O)NC5=O)C6=O)C4)cc3)cc2)n1 (centres unmarked) [Example 485, 5-(3-((4-(2-(4-((2-acetylpyrimidin-4-yl)methoxy)phenyl)propan-2-yl)phenoxy)methyl)azetidin-1-yl)-2-(2,6-dioxopiperidin-3-yl)isoindolin-1,3-dione]	11 to 100 nM
CC(=O)c1nccc(COc2ccc(C(C)(C)c3ccc(OC4CCN(c5ccc6c(c5)C(=O)N(C5CCC(=O)NC5=O)C6=O)C4)cc3)cc2)n1 (centres unmarked) [Example 486]	101 to 1000 nM
CC(=O)c1nccc(COc2ccc(C(C)(C)c3ccc(OC4CC5(CCN(c6ccc7c(c6)C(=O)N(C6CCC(=O)NC6=O)C7=O)CC5)C4)cc3)cc2)n1 (centres unmarked) [Example 489]	1000 to 5000 nM
CC(=O)c1nccc(COc2ccc(C(C)(C)c3ccc(OC4CCC5(C4)CN(c4ccc6c(c4)C(=O)N(C4CCC(=O)NC4=O)C6=O)C5)cc3)cc2)n1 (centres unmarked) [Example 490]	101 to 1000 nM
CC(C)(c1ccc(OCc2ccnc(N3CC4(COC4)C3)n2)cc1)c1ccc(OCC2(CNc3ccc4c(c3)C(=O)N(C3CCC(=O)NC3=O)C4=O)CC2)cc1 (centres unmarked) [Example 495]	101 to 1000 nM
CC(C)(c1ccc(OCc2ccnc(N3CCC4(CCNC4)CC3)n2)cc1)c1ccc(O[C@H]2C[C@@H](Nc3ccc4c(c3)C(=O)N(C3CCC(=O)NC3=O)C4=O)C2)cc1 (some centres unmarked) [Example 500, 5-((1s,3s)-3-(4-(2-(4-(4-((2-(2,8-diazaspiro[4.5]decan-8-yl)pyrimidin-4-yl)methoxy)phenyl)propan-2-yl)phenoxy)cyclobutyl)amino)-2-(2,6-dioxopyridin-3-yl)isoindolin-1,3-dione]	11 to 100 nM
Cc1nnc(-c2coc(Oc3ccc(C(C)(C)c4ccc(O[C@H]5C[C@H](Nc6ccc7c(c6)C(=O)N(C6CCC(=O)NC6=O)C7=O)C5)cc4)cc3)n2)o1 (some centres unmarked) [Example 514]	11 to 100 nM
CC(C)(c1ccc(Oc2cnc(-n3nccn3)c(Cl)c2)cc1)c1ccc(O[C@H]2C[C@H](Nc3ccc4c(c3)C(=O)N(C3CCC(=O)NC3=O)C4=O)C2)cc1 (some centres unmarked) [Example 515]	11 to 100 nM
CC(c1ccc(Oc2cnc(-n3ccnn3)nc2)cc1)c1ccc(O[C@H]2C[C@H](Nc3ccc4c(c3)C(=O)N(C3CCC(=O)NC3=O)C4=O)C2)cc1 (some centres unmarked) [Example 519]	11 to 100 nM
Cc1nc(-c2ncc(Oc3ccc(C(C)(C)c4ccc(OC5CC(Nc6cc7c(cn6)C(=O)N(C6CCC(=O)NC6=O)C7=O)C5)cc4)cc3)cn2)no1 (centres unmarked) [Example 530, 2-(2,6-dioxopiperidin-3-yl)-6-((1r,3r)-3-(4-(2-(4-((2-(5-methyl-1,2,4-oxadiazol-3-yl)pyrimidin-5-yl)oxy)phenyl)propan-2-yl)phenoxy)cyclobutyl)amino)-1H-pyrrolo[3,4-c]pyridin-1,3(2H)-dione]	101 to 1000 nM
Cc1cncc(Oc2ccc(C(C)(C)c3ccc(O[C@H]4C[C@@H](Nc5ccc6c(c5)C(=O)N(C5CCC(=O)NC5=O)C6=O)C4)cc3)cc2)n1 (some centres unmarked) [Example 537]	11 to 100 nM
CC(C)(c1ccc(Oc2ccc(-n3ccnn3)nc2)cc1)c1ccc(O[C@H]2C[C@@H](Nc3ccc4c(c3)C(=O)N(C3CCC(=O)NC3=O)C4=O)C2)cc1 (some centres unmarked) [Example 541, 5-((1s,3s)-3-(4-(2-(4-((6-(1H-1,2,3-triazol-1-yl)pyridin-3-yl)oxy)phenyl)propan-2-ylphenoxy)cyclobutyl)amino)-2-(2,6-dioxopiperidin-3-yl)isoindolin-1,3-dione]	11 to 100 nM
Cc1nc(-c2ccc(Oc3ccc(C(C)(C)c4ccc(OC5CC(Nc6ccc7c(c6)C(=O)N(C6CCC(=O)NC6=O)C7=O)C5)cc4)cc3)cn2)no1 (centres unmarked) [Example 543, 2-(2,6-dioxopiperidin-3-yl)-5-(1s,3s)-3-(4-(2-(4-(6-(5-methyl-1,2,4-oxadiazol-3-yl)pyridin-3-yl)oxy)phenyl)propan-2-yl)phenoxy)cyclobutyl)amino) isoindolin-1,3-dione]	11 to 100 nM
CC(C)(c1ccc(OCc2nccc(N3CC4(COC4)C3)n2)cc1)c1ccc(O[C@H]2C[C@@H](Nc3ccc4c(c3)C(=O)N(C3CCC(=O)NC3=O)C4=O)C2)cc1 (some centres unmarked) [Example 545]	11 to 100 nM

Results, then the compound that gave them:

DC50	SMILES
11 to 100 nM	CC(=O)c1nccc(COc2ccc(C(C)(C)c3ccc(N4CC5(C4)CN(c4ccc6c(c4)C(=O)N(C4CCC(=O)NC4=O)C6=O)C5)cc3)cc2)n1 (centres unmarked) [Example 488]
1000 to 5000 nM	CC(C)(c1ccc(OCCC#Cc2ccc3c(c2)C(=O)N(C2CCC(=O)NC2=O)C3=O)cc1)c1ccc(OCc2ccnc(N3CC4(COC4)C3)n2)cc1 (centres unmarked) [Example 497]
11 to 100 nM	CC(C)(c1ccc(OCc2ccnc(N3CC4(COC4)C3)n2)cc1)c1ccc(OCC2(Nc3ccc4c(c3)C(=O)N(C3CCC(=O)NC3=O)C4=O)CCC2)cc1 (centres unmarked) [Example 498, 5-((1-((4-(2-(4-((2-(2-oxa-6-azaspiro[3.3]heptan-6-yl)pyrimidin-4-yl)methoxy)phenyl)propan-2-yl)phenoxy)methyl)cyclobutyl)amino)-2-(2,6-dioxopiperidin-3-yl)isoindolin-1,3-dione]
11 to 100 nM	CC(C)(c1ccc(OCc2ccnc(N3CC4(COC4)C3)n2)cc1)c1ccc(O[C@]2(C)C[C@@H](Nc3ccc4c(c3)C(=O)N(C3CCC(=O)NC3=O)C4=O)C2)cc1 (some centres unmarked) [Example 499, 5-((1r,3r)-3-(4-(2-(4-(4-((2-(2-oxa-6-azaspiro[3.3]heptane-6-yl)pyrimidin-4-yl)methoxy)phenyl)propan-2-yl)phenoxy)-3-methylcyclobutyl)amino)-2-(2,6-dioxopiperidin-3-yl)isoindolin-1,3-dione]
11 to 100 nM	CC(C)(c1ccc(OCc2ccnc(N3CC4(COC4)C3)n2)cc1)c1ccc(C(=O)N2CC(Nc3ccc4c(c3)C(=O)N(C3CCC(=O)NC3=O)C4=O)C2)cc1 (centres unmarked) [Example 503]
1000 to 5000 nM	CC(c1ccc(C(C)(C)c2ccc(OCc3ccnc(N4CC5(COC5)C4)n3)cc2)cc1)N1CC(Nc2ccc3c(c2)C(=O)N(C2CCC(=O)NC2=O)C3=O)C1 (centres unmarked) [Example 505, 5-((1-(1-(4-(2-(4-(4-) 4-((2-(2-oxa-6-azaspiro[3.3]heptane-6-yl)pyrimidin-4-yl)methoxy)phenyl)propan-2-yl)phenyl)ethyl)azetidin-3-yl)amino)-2-(2,6-dioxopiperidin-3-yl)isoindolin-1,3-dione]
11 to 100 nM	CC(C)(c1ccc(CNc2ccc3c(c2)C(=O)N(C2CCC(=O)NC2=O)C3=O)cc1)c1ccc(OCc2ccnc(N3CC4(COC4)C3)n2)cc1 (centres unmarked) [Example 507, 5-((4-(2-(4-((2-(2-oxa-6-azaspiro[3.3]heptan-6-yl)pyrimidin-4-yl)methoxy)phenyl)propan-2-yl)benzyl)amino)-2-(2,6-dioxopiperidin-3-yl)isoindolin-1,3-dione]
101 to 1000 nM	CN(C(=O)c1ccc(C(C)(C)c2ccc(OCc3ccnc(N4CC5(COC5)C4)n3)cc2)cc1)C1CN(c2ccc3c(c2)C(=O)N(C2CCC(=O)NC2=O)C3=O)C1 (centres unmarked) [Example 508, 4-(2-(4-((2-(2-oxa-6-azaspiro[3.3]heptan-6-yl)pyrimidin-4-yl)methoxy)phenyl)propan-2-yl)-N-(1-(2-(2,6-dioxopiperidin-3-yl)-1,3-dioxoisoindolin-5-yl)azetidin-3-yl)-N-methylbenzamide]
11 to 100 nM	CC(C)(c1ccc(CNC2CN(c3ccc4c(c3)C(=O)N(C3CCC(=O)NC3=O)C4=O)C2)cc1)c1ccc(OCc2ccnc(N3CC4(COC4)C3)n2)cc1 (centres unmarked) [Example 509]
11 to 100 nM	Cc1nc(-c2ncc(Oc3ccc(C(C)(C)c4ccc(O[C@H]5C[C@H](Nc6ccc7c(c6)C(=O)N(C6CCC(=O)NC6=O)C7=O)C5)cc4)cc3)cc2F)no1 (some centres unmarked) [Example 511]
11 to 100 nM	O=C1CCC(N2C(=O)c3ccc(N[C@H]4C[C@H](Oc5ccc(Cc6ccc(Oc7cnc(-n8ccnn8)nc7)cc6)cc5)C4)cc3C2=O)C(=O)N1 (some centres unmarked) [Example 520]
11 to 100 nM	CC(O)c1ccc(Oc2ccc(C(C)(C)c3ccc(O[C@H]4C[C@@H](Nc5ccc6c(c5)C(=O)N(C5CCC(=O)NC5=O)C6=O)C4)cc3)cc2)cn1 (some centres unmarked) [Example 524]
11 to 100 nM	CCNC(=O)c1nccc(COc2ccc(C(C)(C)c3ccc(OC4CC(Nc5ccc6c(c5)C(=O)N(C5CCC(=O)NC5=O)C6=O)C4)cc3)cc2)n1 (centres unmarked) [Example 531]
11 to 100 nM	CN1CCN(c2ncc(COc3ccc(C(C)(C)c4ccc(OC5CC(Nc6ccc7c(c6)C(=O)N(C6CCC(=O)NC6=O)C7=O)C5)cc4)cc3)cn2)CC1 (centres unmarked) [Example 534]
11 to 100 nM	CC(C)(c1ccc(Oc2ccc(-n3nccn3)nc2)cc1)c1ccc(O[C@H]2C[C@@H](Nc3ccc4c(c3)C(=O)N(C3CCC(=O)NC3=O)C4=O)C2)cc1 (some centres unmarked) [Example 540]
11 to 100 nM	CC(C)(c1ccc(Oc2ccc(-n3cccn3)nc2)cc1)c1ccc(O[C@H]2C[C@@H](Nc3ccc4c(c3)C(=O)N(C3CCC(=O)NC3=O)C4=O)C2)cc1 (some centres unmarked) [Example 542]
11 to 100 nM	Cc1nc(-c2ccc(Oc3ccc(C(C)(C)c4ccc(O[C@H]5C[C@H](Nc6ccc7c(c6)C(=O)N(C6CCC(=O)NC6=O)C7=O)C5)cc4)cc3)nc2)no1 (some centres unmarked) [Example 546]
11 to 100 nM	COc1cnc(Oc2ccc(C(C)(C)c3ccc(O[C@H]4C[C@H](Nc5ccc6c(c5)C(=O)N(C5CCC(=O)NC5=O)C6=O)C4)cc3)cc2)cn1 (some centres unmarked) [Example 552, 2-(2,6-dioxopiperidin-3-yl)-5-(((1r,3r)-3-(4-(4-((5-methoxypyrazin-2-yl)oxy)phenyl)propan-2-yl)phenoxy)amino)isoindolin-1,3-dione]
